In PubChem BioAssay AID200 (DTP/NCI, 2004):
“And” between values parts separate entries of the source, which are not always exact repeats. Equal entries are not always repeated. Inconclusive results and toxic doses are left out. Where a SMILES comes first, the peptide text is derived from it. The star is where a group is joined. Cbz = O=C(OCc1ccccc1)*; Bn = c1ccc(C*)cc1

Test system: B6C3F1 mice, B16 melanoma ip, median survival T/C
Assay: NCI In Vivo Anticancer Drug Screen. Data for tumor model B16 Melanoma (intraperitoneal) in B6C3F1 mice
Conditions: endpoint: median survival time, higher = longer survival
In short: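 Values are T/C ratios: the measurement in treated animals divided by that in vehicle-treated controls, using survival or tumor size in mice carrying transplantable tumors.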

[1] = dose: 0.5 mg/kg/injection, schedule: Q01DX009 (ip), vehicle: water
[2] = dose: 1.56 mg/kg/injection, schedule: Q01DX009 (ip), vehicle: saline with Tween-80
[3] = dose: 6.25 mg/kg/injection, schedule: Q01DX009 (ip), vehicle: saline with Tween-80
[4] = dose: 25.0 mg/kg/injection, schedule: Q01DX009 (ip), vehicle: saline with Tween-80
[5] = dose: 50.0 mg/kg/injection, schedule: Q01DX009 (ip), vehicle: saline with Tween-80
[6] = dose: 100.0 mg/kg/injection, schedule: Q01DX009 (ip), vehicle: saline with Tween-80
[7] = dose: 100.0 mg/kg/injection, schedule: Q01DX009 (ip), vehicle: Klucel (hydroxypropylcellulose) (HPC)
[8] = dose: 200.0 mg/kg/injection, schedule: Q01DX009 (ip), vehicle: Klucel (hydroxypropylcellulose) (HPC)
[9] = dose: 12.5 mg/kg/injection, schedule: Q01DX009 (ip), vehicle: saline with Tween-80
[10] = dose: 12.5 mg/kg/injection, schedule: Q01DX009 (ip), vehicle: saline
[11] = dose: 25.0 mg/kg/injection, schedule: Q01DX009 (ip), vehicle: saline
[12] = dose: 50.0 mg/kg/injection, schedule: Q01DX009 (ip), vehicle: saline

With `COc1cc2c(c(OC)c1OC)-c1ccc(OC)c(=O)cc1[C@@H](NC(C)=O)CC2` the T/C (dose: 0.02 mg/kg/injection, schedule: Q01DX009 (ip), vehicle: saline) was 108 % of control, the T/C (dose: 0.04 mg/kg/injection, schedule: Q01DX009 (ip), vehicle: saline) was 123 % of control and the T/C (dose: 0.13 mg/kg/injection, schedule: Q01DX009 (ip), vehicle: Klucel (hydroxypropylcellulose) (HPC)) was 158 % of control. For the same compound, the T/C (dose: 0.19 mg/kg/injection, schedule: Q01DX009 (ip), vehicle: saline) was 156 % of control, the T/C (dose: 0.25 mg/kg/injection, schedule: Q01DX009 (ip), vehicle: Klucel (hydroxypropylcellulose) (HPC)) was 155 % of control and the T/C (dose: 0.25 mg/kg/injection, schedule: Q01DX009 (ip), vehicle: saline) was 164 % of control. For the same compound, the T/C (dose: 0.37 mg/kg/injection, schedule: Q01DX009 (ip), vehicle: saline) was 167 % of control, the T/C (dose: 0.38 mg/kg/injection, schedule: Q01DX009 (ip), vehicle: saline) was 168 % of control and the T/C (dose: 0.5 mg/kg/injection, schedule: Q01DX009 (ip), vehicle: Klucel (hydroxypropylcellulose) (HPC)) was 173 % of control. For the same compound, the T/C (dose: 0.5 mg/kg/injection, schedule: Q01DX009 (ip), vehicle: saline) was 154 % of control, the T/C [1] was 157 % of control and the T/C (dose: 1.0 mg/kg/injection, schedule: Q01DX009 (ip), vehicle: saline) was 154 % of control. For the same compound, the T/C (dose: 125.0 micrograms/kg/injection, schedule: Q01DX009 (ip), vehicle: water) was 161 % of control, the T/C (dose: 250.0 micrograms/kg/injection, schedule: Q01DX009 (ip), vehicle: water) was 154 % of control and the T/C (dose: 500.0 micrograms/kg/injection, schedule: Q01DX009 (ip), vehicle: water) was 155 % of control.

In the case of `Cc1c(C)c2c(c(C)c1OC(=O)CCC(=O)O)CCC(C)(CCCC(C)CCCC(C)CCCC(C)C)O2` (stereo unspecified), the T/C (dose: 25.0 mg/kg/injection, schedule: Q01DX009 (ip), vehicle: distilled water + Tween-80 + alcohol) is reported as 96 % of control, the T/C (dose: 50.0 mg/kg/injection, schedule: Q01DX009 (ip), vehicle: distilled water + Tween-80 + alcohol) is reported as 112 % of control and the T/C (dose: 100.0 mg/kg/injection, schedule: Q01DX009 (ip), vehicle: distilled water + Tween-80 + alcohol) is reported as 114 % of control. For the same compound, the T/C (dose: 200.0 mg/kg/injection, schedule: Q01DX009 (ip), vehicle: distilled water + Tween-80 + alcohol) was 86 % of control.

In the case of `C=C1C(C)C2C(Cc3ccccc3)NC(=O)C23C(OC(C)=O)/C=C/C(C)(O)CC(C)C/C=C/C3C1O` (stereo unspecified), the T/C (dose: 0.37 mg/kg/injection, schedule: Q01DX009 (ip), vehicle: Klucel (hydroxypropylcellulose) (HPC)) is reported as 112 % of control and 99 % of control, the T/C (dose: 0.75 mg/kg/injection, schedule: Q01DX009 (ip), vehicle: Klucel (hydroxypropylcellulose) (HPC)) is reported as 110 % of control and 100 % of control and 101 % of control and the T/C (dose: 1.5 mg/kg/injection, schedule: Q01DX009 (ip), vehicle: Klucel (hydroxypropylcellulose) (HPC)) is reported as 115 % of control and 98 % of control and 103 % of control. The T/C [2] was 124 % of control, the T/C (dose: 3.0 mg/kg/injection, schedule: Q01DX009 (ip), vehicle: Klucel (hydroxypropylcellulose) (HPC)) was 112 % of control and 115 % of control and 105 % of control and the T/C (dose: 3.13 mg/kg/injection, schedule: Q01DX009 (ip), vehicle: saline with Tween-80) was 111 % of control. The T/C (dose: 6.0 mg/kg/injection, schedule: Q01DX009 (ip), vehicle: Klucel (hydroxypropylcellulose) (HPC)) was 103 % of control, the T/C [3] was 113 % of control and the T/C (dose: 12.0 mg/kg/injection, schedule: Q01DX009 (ip), vehicle: Klucel (hydroxypropylcellulose) (HPC)) was 103 % of control.

For `COc1cccc2c1C(=O)c1c(O)c3c(c(O)c1C2=O)C[C@@](O)(C(=O)CO)C[C@@H]3OC1CC(N)C(O)C(C)O1` (stereo partly specified), the T/C (dose: 0.12 mg/kg/injection, schedule: Q01DX009 (ip), vehicle: water) was 166 % of control, the T/C (dose: 0.13 mg/kg/injection, schedule: Q01DX009 (ip), vehicle: water) was 195 % of control and the T/C (dose: 0.25 mg/kg/injection, schedule: Q01DX009 (ip), vehicle: water) was 188 % of control and 212 % of control and 252 % of control. For the same compound, the T/C (dose: 0.5 mg/kg/injection, schedule: Q01DX001 (ip), vehicle: saline) was 152 % of control and 159 % of control, the T/C [1] was 226 % of control and 247 % of control and 285 % of control and the T/C (dose: 1.0 mg/kg/injection, schedule: Q01DX001 (ip), vehicle: saline) was 165 % of control and 193 % of control. For the same compound, the T/C (dose: 1.0 mg/kg/injection, schedule: Q01DX009 (ip), vehicle: water) was 264 % of control and 285 % of control and 320 % of control, the T/C (dose: 2.0 mg/kg/injection, schedule: Q01DX001 (ip), vehicle: saline) was 151 % of control and 192 % of control and 244 % of control and the T/C (dose: 2.0 mg/kg/injection, schedule: Q01DX005 (ip), vehicle: saline) was 326 % of control. For the same compound, the T/C (dose: 2.0 mg/kg/injection, schedule: Q01DX009 (ip), vehicle: water) was 229 % of control and 278 % of control and 285 % of control, the T/C (dose: 4.0 mg/kg/injection, schedule: Q01DX001 (iv), vehicle: saline) was 109 % of control and the T/C (dose: 4.5 mg/kg/injection, schedule: Q01DX001 (ip), vehicle: saline) was 195 % of control. For the same compound, the T/C (dose: 9.0 mg/kg/injection, schedule: Q01DX001 (ip), vehicle: saline) was 174 % of control and 255 % of control, the T/C (dose: 18.0 mg/kg/injection, schedule: Q01DX001 (ip), vehicle: saline) was 103 % of control and the T/C (dose: 10.0 micrograms/kg/injection, schedule: Q01DX005 (ip), vehicle: saline) was 100 % of control. The T/C (dose: 10.0 micrograms/mouse/injection, schedule: Q01DX005 (ip), vehicle: saline) was 220 % of control, the T/C (dose: 20.0 micrograms/kg/injection, schedule: Q01DX005 (ip), vehicle: saline) was 116 % of control and the T/C (dose: 20.0 micrograms/mouse/injection, schedule: Q01DX005 (ip), vehicle: saline) was 197 % of control. The T/C (dose: 40.0 micrograms/mouse/injection, schedule: Q01DX005 (ip), vehicle: saline) was 273 % of control.

With `CC1(C)OCC2OC=CC(=O)C2O1` (stereo unspecified) the T/C [4] was 102 % of control, the T/C [5] was 100 % of control and the T/C [6] was 97 % of control. The T/C (dose: 200.0 mg/kg/injection, schedule: Q01DX009 (ip), vehicle: saline with Tween-80) was 105 % of control and the T/C (dose: 400.0 mg/kg/injection, schedule: Q01DX009 (ip), vehicle: saline with Tween-80) was 95 % of control.

In the case of `CC(C)C(NC(=O)C(CSCc1ccccc1)NC(=O)OCc1ccccc1)C(=O)O` (stereo unspecified) (Cbz-Cys(Bn)-Val-OH; configuration not given here), the T/C [7] is reported as 93 % of control and the T/C [8] is reported as 98 % of control.

For `CC(C)C(NC(=O)C(Cc1cnc[nH]1)NC(=O)OCc1ccccc1)C(=O)O` (stereo not drawn) (Cbz-His-Val-OH; configuration not given here), the T/C [7] was 94 % of control, the T/C [8] was 102 % of control and the T/C (dose: 400.0 mg/kg/injection, schedule: Q01DX009 (ip), vehicle: Klucel (hydroxypropylcellulose) (HPC)) was 102 % of control.

For `CN(N=O)C(=O)NCCCCCNC(=O)N(C)N=O`, the T/C [9] was 98 % of control, the T/C [4] was 100 % of control and the T/C [5] was 109 % of control. For the same compound, the T/C [6] was 110 % of control.

`O=C(Nc1ccc(C2=NCCN2)cc1)c1ccc(C(=O)Nc2ccc(C3=NCCN3)cc2)c(Cl)c1` was tested, and the T/C [2] was 105 % of control, the T/C (dose: 1.56 mg/kg/injection, schedule: Q01DX009 (ip), vehicle: saline) was 115 % of control and the T/C (dose: 3.12 mg/kg/injection, schedule: Q01DX009 (ip), vehicle: saline with Tween-80) was 98 % of control. The T/C (dose: 3.12 mg/kg/injection, schedule: Q01DX009 (ip), vehicle: saline) was 89 % of control, the T/C [3] was 100 % of control and the T/C (dose: 6.25 mg/kg/injection, schedule: Q01DX009 (ip), vehicle: saline) was 100 % of control. For the same compound, the T/C [9] was 93 % of control, the T/C [10] was 93 % of control and the T/C [4] was 110 % of control. The T/C [11] was 94 % of control, the T/C [5] was 110 % of control and the T/C [12] was 99 % of control.

`CCCC(NC)C(CC)CN` (stereo unspecified) was tested, and the T/C [10] was 93 % of control, the T/C [11] was 100 % of control and the T/C [12] was 110 % of control. The T/C (dose: 100.0 mg/kg/injection, schedule: Q01DX009 (ip), vehicle: saline) was 105 % of control.

`N/C(=N\OC(=O)Nc1ccc(CSc2ccc(Cl)cc2)o1)c1ccccn1` was tested, and the T/C (dose: 12.5 mg/kg/injection, schedule: Q01DX009 (ip), vehicle: Klucel (hydroxypropylcellulose) (HPC)) was 97 % of control, the T/C (dose: 25.0 mg/kg/injection, schedule: Q01DX009 (ip), vehicle: Klucel (hydroxypropylcellulose) (HPC)) was 95 % of control and the T/C (dose: 50.0 mg/kg/injection, schedule: Q01DX009 (ip), vehicle: Klucel (hydroxypropylcellulose) (HPC)) was 91 % of control. The T/C [7] was 91 % of control and the T/C [8] was 86 % of control.

In the case of `O=C1C2=C(C(=O)c3cnccc31)C1C=CC2CC1` (stereo unspecified), the T/C (dose: 12.5 mg/kg/injection, schedule: Q01DX009 (ip), vehicle: DMSO) is reported as 115 % of control, the T/C (dose: 25.0 mg/kg/injection, schedule: Q01DX009 (ip), vehicle: DMSO) is reported as 98 % of control and the T/C (dose: 50.0 mg/kg/injection, schedule: Q01DX009 (ip), vehicle: DMSO) is reported as 111 % of control. The T/C (dose: 100.0 mg/kg/injection, schedule: Q01DX009 (ip), vehicle: DMSO) was 98 % of control.
